From paper PMC12440886, “Inhibition of the oncogenic channel Kv10.1 by the antipsychotic drug penfluridol” (Frontiers in Pharmacology, 2025)

How the values were obtained:
Kv10.1 [1] = target: T1, Kv10.1 (Homo sapiens, UniProt O95259); assay: FLIPR membrane potential fluorescence assay in HEK-Kv10.[…] cells, single concentration ([…]); type: cell-based; settings: read-out: % decrease in response amplitude at 100 μM
T1 construct: gene KCNH1
T1 sequence (O95259 1-989): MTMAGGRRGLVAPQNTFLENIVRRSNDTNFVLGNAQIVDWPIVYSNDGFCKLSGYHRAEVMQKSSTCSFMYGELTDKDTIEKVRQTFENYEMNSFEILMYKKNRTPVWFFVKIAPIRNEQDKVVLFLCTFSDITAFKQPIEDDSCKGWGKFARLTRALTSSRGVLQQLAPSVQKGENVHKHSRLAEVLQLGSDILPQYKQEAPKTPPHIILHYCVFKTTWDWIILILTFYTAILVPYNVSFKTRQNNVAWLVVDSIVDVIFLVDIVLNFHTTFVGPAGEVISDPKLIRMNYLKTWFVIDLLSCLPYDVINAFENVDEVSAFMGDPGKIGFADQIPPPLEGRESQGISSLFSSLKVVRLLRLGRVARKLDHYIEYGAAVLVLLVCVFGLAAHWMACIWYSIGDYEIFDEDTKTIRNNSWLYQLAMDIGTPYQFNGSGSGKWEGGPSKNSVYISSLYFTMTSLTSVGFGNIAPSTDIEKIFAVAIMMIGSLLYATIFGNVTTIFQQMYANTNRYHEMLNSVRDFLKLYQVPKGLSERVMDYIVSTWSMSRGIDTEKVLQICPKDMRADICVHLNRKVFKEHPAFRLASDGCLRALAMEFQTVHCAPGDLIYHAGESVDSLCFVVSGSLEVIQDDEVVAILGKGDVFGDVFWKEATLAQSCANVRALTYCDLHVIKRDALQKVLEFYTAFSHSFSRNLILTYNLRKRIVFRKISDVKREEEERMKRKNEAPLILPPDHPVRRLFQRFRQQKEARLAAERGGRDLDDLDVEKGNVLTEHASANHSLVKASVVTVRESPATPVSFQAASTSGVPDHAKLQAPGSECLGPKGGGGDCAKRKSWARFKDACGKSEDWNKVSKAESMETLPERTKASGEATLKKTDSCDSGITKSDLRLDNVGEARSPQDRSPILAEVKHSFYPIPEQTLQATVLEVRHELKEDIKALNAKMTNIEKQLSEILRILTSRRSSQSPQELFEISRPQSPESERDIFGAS

Kv10.1 [2] = target: T1, Kv10.1; assay: whole-cell patch-clamp, HEK293 cells stably expressing human Kv10.[…]; type: cell-based

IC50 (Kv10.1 [2]) [nM] | SMILES | inhibition at 100 µM (Kv10.1 [1]) [%]
 | CN(C)C(=O)C(CCN1CCC(O)(c2ccc(Cl)cc2)CC1)(c1ccccc1)c1ccccc1 [LP, loperamide] | 46.1
2700 ± 300 | OC1(c2ccc(Cl)c(C(F)(F)F)c2)CCN(CCCC(c2ccc(F)cc2)c2ccc(F)cc2)CC1 [PNFL, penfluridol] | 
